Laboratory results reported in US7365162B2, “Stabilized bioactive peptides and methods of identification, synthesis, and use” (priority 1998, dated 2008).
Where two headings read alike, the source gives them in different places. No end group written: not given here.

B1: pPep19-anti: pPep19 insert recloned in pLAC11 with ATG start codon changed to ACG (SEQ ID NO:33) (nucleic acid)
DNA: TACTATAGATCTACGAGGGGCGCCAACTAAGGGGGGGGGAAGGTATTTGTCCCGTGCATAATCTCGGGTGTTGTCTAATAAGAATTCTCGACA
modifications: expressed or natural sequence
B2: Rop: small 63 amino acid four-helix bundle protein from the ColEl replicon, used as stabilizing group (protein, UniProt P03051 1-63, looked up)
Regulatory protein rop: MTKQEKTALNMARFIRSQTLTLLEKLNELDADEQADICESLHDHADELYRSCLARFGDDGENL
B3: pPep12-anti: pPep12 insert recloned in pLAC11 with ATG start codon changed to ACG (SEQ ID NO:31) (nucleic acid)
DNA: TACTATAGATCTACGAACGGCCGAACCAAACGAATCCGGGACCCACCAGCCGCCTAAACAGCTACCAGCTGTGGTAATAAGAATTCTCGACA
modifications: expressed or natural sequence
B4: pPep5-anti: pPep5 insert recloned in pLAC11 with ATG start codon changed to ACG (SEQ ID NO:30) (nucleic acid)
DNA: TACTATAGATCTACGTGGCGGGACTCATGGATTAAGGGTAGGGACGTGGGGTTTATGGGTTAAAATAGTTTGATAATAAGAATTCTCGACA
modifications: expressed or natural sequence
B5: pPep13-anti: pPep13 insert recloned in pLAC11 with ATG start codon changed to ACG (SEQ ID NO:32) (nucleic acid)
DNA: TACTATAGATCTACGGACCGTGAAGTGATGTGTGCGGCAAAACAGGAATGGAAGGAACGAACGCCATAGGCCGCGTAATAAGAATTCTCGACA
modifications: expressed or natural sequence
B6: pPep1-anti: pPep1 insert recloned in pLAC11 with ATG start codon changed to ACG (SEQ ID NO:29) (nucleic acid)
DNA: TACTATAGATCTACGGTCACTGAATTTTGTGGCTTGTTGGACCAACTGCCTTAGTAATAGTGGAAGGCTGAAATTAATAAGAATTCTCGACA
modifications: expressed or natural sequence

Columns and labels:
ATPase = conditions: read-out: Binding Constant; Inhibited Protein: ATPase; cited from earlier work
Calpain = conditions: Inhibited Protein: Calpain; read-out: Binding Constant; cited from earlier work
galanin receptor = experiment: Radio immunoassay, displacement of radiolabeled galanin from its receptor; assay type: binding
Protocol: Radio immunoassays (RIAs) were performed to determine the ability of galanin and its APP derivatives to displace radiolabeled galanin from its receptor.

E. coli [1] = assay type: cell-based; conditions: ALS225 cells, minimal inducing plate (M9 glycerol Amp IPTG), grid patching
E. coli [2] = experiment: Growth rate analysis in liquid media of cells expressing induced peptides; assay type: cell-based; conditions: for % Inhibition (of the growth rate): ALS225, minimal media, 1 mM IPTG, versus induced pLAC11 vector, average of three determinations; for % inhibition versus pLAC11 control (inhibitory peptide): induced inhibitor; for % inhibition versus pLAC11 control (inhibitory peptide) / % inhibition versus pLAC11 control (antisense construct): growth rate; for % inhibition versus pLAC11 control (antisense construct): ATG start codon converted to ACG, induced
Nicotinic Acetylcholine = conditions: read-out: Binding Constant; cited from earlier work
[3] = Steif et al. 1993; cited from earlier work

Molecule | Type (one day / two day inhibitor) (E. coli [1]) | % Inhibition (of the growth rate) (E. coli [2]) | also measured
Myotoxin (29-42) | – | – | Kd (ATPase): 19000 nM
SCP (153-180) | – | – | Kd (Calpain): 30 nM
galanin with the APP (Ala-Pro-Pro) motif at the amino terminus [APP-galanin] | – | – | Ki (galanin receptor): 6.42 nM
pPep5: 16 aa inhibitor peptide encoded by clone pPep5 (SEQ ID NO:36) (MWRDSWIKGRDVGFMG; stabilized peptide) | 1 Day (able to prevent the growth of the E. coli bacteria at 24 hours) | 24% | % inhibition versus pLAC11 control (inhibitory peptide) (E. coli [2]): 23%
pPep6: 42 aa inhibitor peptide (SEQ ID NO:39); last 25 aa could form a hydrophobic membrane-spanning domain (MSGGHVTRECKSAMSNRWIYVIRILMFDSLSSISFNAVVYHS; also: stabilized peptide) | 1 Day (able to prevent the growth of the E. coli bacteria at 24 hours) | 27% | –
pPep7: 6 aa inhibitor peptide (SEQ ID NO:40) (MYLFIG; stabilized peptide) | 1 Day (able to prevent the growth of the E. coli bacteria at 24 hours) | 26% | –
pPep8: 21 aa inhibitor peptide (SEQ ID NO:43) (MLLFGGDCGKAGYFTVLPSR; stabilized peptide) | 1 Day (able to prevent the growth of the E. coli bacteria at 24 hours) | 29% | –
pPep10: 20 aa inhibitor peptide (SEQ ID NO:45) (MIGGSLSFAWAIVCNKNSHV; stabilized peptide) | 1 Day (able to prevent the growth of the E. coli bacteria at 24 hours) | 24% | –
pPep12: 14 aa two day inhibitor peptide (SEQ ID NO:46), two prolines near the C-terminus; printed pPep22 in Table 10 (MNGRTKRIRDPPAA; stabilized peptide) | two day | 82% | Type (one day / two day inhibitor) (E. coli [1]; listed as pPep22): 2 Day (able to prevent the growth of the E. coli bacteria at 48 hours); % inhibition versus pLAC11 control (inhibitory peptide) (E. coli [2]): 80%
pPep13: 18 aa inhibitor peptide (SEQ ID NO:48), C-terminal proline (MDREVMCAAKQEWKERTP; stabilized peptide) | 1 Day (able to prevent the growth of the E. coli bacteria at 24 hours) | 28% | % inhibition versus pLAC11 control (inhibitory peptide) (E. coli [2]): 28%
pPep17: 12 aa inhibitor peptide (SEQ ID NO:51), C-terminal proline (MLGLEATYPFNP; stabilized peptide) | 1 Day (able to prevent the growth of the E. coli bacteria at 24 hours) | 28% | –
pPep19: 5 aa inhibitor peptide (SEQ ID NO:52) (MRGAN; stabilized peptide) | 1 Day (able to prevent the growth of the E. coli bacteria at 24 hours) | 29% | % inhibition versus pLAC11 control (inhibitory peptide) (E. coli [2]): 29%
α-Conotoxin GIA | – | – | Kd (Nicotinic Acetylcholine): 1 nM
B1 | – | – | % inhibition versus pLAC11 control (antisense construct) (E. coli [2]): 0%
B2 | – | – | midpoint temperature of denaturation, Tm [3]: about 71 °C
B3 | – | – | % inhibition versus pLAC11 control (antisense construct) (E. coli [2]): 0%
B4 | – | – | % inhibition versus pLAC11 control (antisense construct) (E. coli [2]): 0%
B5 | – | – | % inhibition versus pLAC11 control (antisense construct) (E. coli [2]): 0%
B6 | – | – | % inhibition versus pLAC11 control (antisense construct) (E. coli [2]): 0%
